Article PMC4822253, “Inhibition of BMP and of TGFβ receptors downregulates expression of XIAP and TAK1 leading to lung cancer cell death” (Molecular Cancer, 2016)
pIC50: −log10 of the molar value.

Legend:
H1299 Id1-luc cells = assay: Id1-promoter luciferase reporter assay; format: cell-based; conditions: 1.0 μM and 2.5 μM, 48 h
Description: H1299 cells were stably transfected with the Id1-promoter luciferase reporter. Treated cells were lysed with 1X luciferase lysis buffer (Promega). Samples were added to luciferase assay substrate (Promega) and luminsescence measured by the TD-20/20 Luminometer (Turner Designs/Turner BioSystems, Sunnyvale, CA). Control samples included luciferase assay substrate alone and luciferase assay substrate plus 1X reporter lysis buffer.

H1299 cells [1] = assay: Western blot analysis of cells in culture; format: cell-based; conditions: H1299 cells
Description: (§1) Total cellular protein was prepared using RIPA buffer containing a protease inhibitor cocktail and protein concentration was measured using the BCA assay as described. In brief, protein was analyzed by SDS-PAGE, transferred to nitrocellulose (Schleicher and Schuell, Keene, NH). After blocking, the blots were incubated overnight at 4 °C with the appropriate primary antibody in Tris-buffered saline with 1 % Tween (TBST) and 5 % BSA. Secondary antibodies were applied for 1 h at room temperature. Specific proteins were detected using the enhanced chemiluminescence system (Amersham, Arlington Heights, IL). The primary antibodies that were used were rabbit monoclonal anti-pSmad 1/5, rabbit monoclonal anti-pSmad2, rabbit monoclonal anti-Smad2, rabbit monoclonal anti-pTAK1, rabbit monoclonal XIAP, rabbit anti-monoclonal p-p65, rabbit monoclonal anti-activated caspase-3, rabbit polyclonal anti-BMPRII, and rabbit monoclonal anti-EGR-1 (Cell signaling Technology, Danvers MA), Rabbit monoclonal anti-TAK1 (Invitrogen, Grand Island NY), rabbit anti-actin, an affinity isolated antigen specific antibody (Sigma, Saint Louis, MO), rabbit monoclonal anti-Id1 and rabbit monoclonal anti-Id3 (Calbioreagents, San Mateo, CA), rabbit polyclonal anti-GAPDH (Sigma, St. Louis, MO) and rabbit polyclonal pMEK-1/2 (Cell Signaling, Danvers MA).

A549 cells [2] = assay: Western blot analysis of cells in culture; format: cell-based
Description: as §1

[3] = Plasma protein binding by equilibrium dialysis; format: in vitro ADME; conditions: mouse plasma
H1299 cells [4] = assay: Cell counts (live cells, trypan blue); format: cell-based
Description: (§2) Cells were plated into 6 well plates at 10^5 cells per well and treated with 1 μM DMSO or antagonist for 7 days. The cells were detached with trypsin, stained with trypan blue, and the number of live cells counted using a hemocytometer.

A549 cells [5] = assay: Cell counts (live cells, trypan blue); format: cell-based; conditions: compound alone, 7 days
Description: as §2

BMPRII = target: T1, BMPRII (Homo sapiens, UniProt Q13873); assay: In vitro kinase IC50; format: biochemical; conditions: kinase activity; ATP 10 Micromolar; 10-point, duplicate
T1 construct: purchased Reaction Biology Corporation (Malvern, PA)
T1 sequence (Q13873 27-1038): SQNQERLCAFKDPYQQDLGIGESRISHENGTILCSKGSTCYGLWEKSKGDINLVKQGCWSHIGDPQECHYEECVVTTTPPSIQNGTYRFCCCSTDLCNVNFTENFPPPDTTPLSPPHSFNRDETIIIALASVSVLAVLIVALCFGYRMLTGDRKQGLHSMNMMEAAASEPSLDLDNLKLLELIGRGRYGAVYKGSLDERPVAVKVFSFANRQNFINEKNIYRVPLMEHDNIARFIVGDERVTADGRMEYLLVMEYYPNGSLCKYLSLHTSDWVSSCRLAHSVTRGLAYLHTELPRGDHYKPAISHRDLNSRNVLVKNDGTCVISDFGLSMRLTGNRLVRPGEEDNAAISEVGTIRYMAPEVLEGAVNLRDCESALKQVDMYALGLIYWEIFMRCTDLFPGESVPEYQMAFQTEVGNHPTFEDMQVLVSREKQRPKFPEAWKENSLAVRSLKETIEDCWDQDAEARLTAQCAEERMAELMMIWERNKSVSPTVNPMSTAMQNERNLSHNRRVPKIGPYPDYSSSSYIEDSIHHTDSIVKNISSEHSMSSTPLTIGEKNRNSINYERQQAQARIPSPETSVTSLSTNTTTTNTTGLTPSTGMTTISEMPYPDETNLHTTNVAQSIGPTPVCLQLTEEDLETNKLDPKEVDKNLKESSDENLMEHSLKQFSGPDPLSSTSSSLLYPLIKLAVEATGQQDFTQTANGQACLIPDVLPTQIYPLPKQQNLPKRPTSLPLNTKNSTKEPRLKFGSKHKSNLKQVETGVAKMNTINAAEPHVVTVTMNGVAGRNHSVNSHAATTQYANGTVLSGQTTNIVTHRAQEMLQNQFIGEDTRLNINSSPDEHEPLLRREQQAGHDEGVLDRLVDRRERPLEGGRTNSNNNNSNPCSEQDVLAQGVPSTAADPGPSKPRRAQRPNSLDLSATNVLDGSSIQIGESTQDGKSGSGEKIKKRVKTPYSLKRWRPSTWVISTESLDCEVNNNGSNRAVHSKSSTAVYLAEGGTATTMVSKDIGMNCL
Excerpt: (§3) The ATP concentration was 10 Micromolar.

TGFbetaR2 = target: T2, TGFbetaR2 (Homo sapiens, UniProt P37173); assay: In vitro kinase IC50; format: biochemical; conditions: kinase activity; ATP 10 Micromolar; 10-point, duplicate
T2 construct: purchased Reaction Biology Corporation (Malvern, PA)
Excerpt: as §3

Alk2/ACVRR1 = target: T3, Alk2/ACVRR1 (Homo sapiens, UniProt Q04771); design: purchased Reaction Biology Corporation (Malvern, PA); conditions: reported; read-out: IC50 for the BMP type I receptor Alk2; cited from earlier work
T3 sequence (Q04771 21-509): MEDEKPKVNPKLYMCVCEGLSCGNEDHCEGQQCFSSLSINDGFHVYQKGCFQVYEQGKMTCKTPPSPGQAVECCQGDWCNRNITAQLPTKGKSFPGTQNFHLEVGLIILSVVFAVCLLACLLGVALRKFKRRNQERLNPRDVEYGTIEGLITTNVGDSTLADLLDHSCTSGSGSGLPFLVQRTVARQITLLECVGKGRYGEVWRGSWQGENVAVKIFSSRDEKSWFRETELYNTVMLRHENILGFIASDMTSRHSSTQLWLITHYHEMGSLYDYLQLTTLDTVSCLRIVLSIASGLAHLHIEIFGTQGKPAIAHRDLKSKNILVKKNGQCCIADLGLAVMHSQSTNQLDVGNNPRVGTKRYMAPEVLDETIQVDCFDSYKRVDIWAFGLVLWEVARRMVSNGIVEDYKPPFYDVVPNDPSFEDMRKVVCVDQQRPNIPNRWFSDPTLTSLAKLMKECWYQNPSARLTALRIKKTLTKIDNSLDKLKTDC

[6] = 24 and 48 h, suppression at higher concentrations

T2 sequence (P37173 23-567): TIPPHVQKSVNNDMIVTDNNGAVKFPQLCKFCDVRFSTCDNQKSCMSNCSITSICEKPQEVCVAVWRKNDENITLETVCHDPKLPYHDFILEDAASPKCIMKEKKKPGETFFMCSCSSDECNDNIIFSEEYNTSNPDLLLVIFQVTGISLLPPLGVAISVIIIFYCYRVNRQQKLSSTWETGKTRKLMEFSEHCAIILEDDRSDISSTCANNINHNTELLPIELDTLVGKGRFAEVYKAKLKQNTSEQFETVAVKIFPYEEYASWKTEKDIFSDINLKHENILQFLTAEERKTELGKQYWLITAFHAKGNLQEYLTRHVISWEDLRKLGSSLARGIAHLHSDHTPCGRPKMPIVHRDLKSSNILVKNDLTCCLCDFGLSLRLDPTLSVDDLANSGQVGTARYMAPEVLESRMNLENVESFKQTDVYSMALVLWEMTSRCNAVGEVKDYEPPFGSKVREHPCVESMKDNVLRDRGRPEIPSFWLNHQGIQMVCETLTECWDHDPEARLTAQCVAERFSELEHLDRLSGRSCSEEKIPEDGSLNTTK

Structure (SMILES): c1ccc2c(-c3cnn4cc(-c5ccc(OCCN6CCOCC6)cc5)cnc34)ccnc2c1 [DMH2]
- suppression of Id1 promoter activity in comparison to DMH1 (H1299 Id1-luc cells): significantly greater suppression
- expression of phosphorylated MEK-1/2 (H1299 cells [1]; 24 and 48 h): increase
- low dose that can cause an increase in the expression of Id1 (H1299 cells [1]; [6]): 0.5 µM
- expression of activated caspase-3 (H1299 cells [1]; 48 h): induced
- expression of Smad2 (H1299 cells [1]; 3 days): very significant decrease
- expression of TAK1 and phosphorylation of NF-kappa B subunit p65 (H1299 cells [1]; 3 days): decrease
- expression of XIAP (H1299 cells [1]; after 3 days (cell line not stated for DMH1 and LDN)): significant decrease
- phosphorylation of TAK1 and Smad2 (H1299 cells [1]; increasing doses, 48 h): increase in phosphorylation of TAK1and Smad2 at lower doses, which tapered off at higher doses
- low dose that can cause an increase in the expression of Id1 (A549 cells [2]; [6]): 0.5 µM
- expression of activated caspase-3 (A549 cells [2]; 48 h): induced
- expression of phosphorylated MEK-1/2 (A549 cells [2]; 48 h): increase
- expression of Smad2 (A549 cells [2]; 3 days): very significant decrease
- expression of TAK1 and phosphorylation of NF-kappa B subunit p65 (A549 cells [2]; 3 days): decrease
- expression of XIAP (A549 cells [2]; after 3 days): significant decrease
- phosphorylation of TAK1 and Smad2 (A549 cells [2]; increasing doses, 48 h): increase in phosphorylation of TAK1and Smad2 at lower doses, which tapered off at higher doses
- percent binding plasma proteins [3]: 98.2 % +/−1.5
- growth suppression compared to DMH1 and LDN (H1299 cells [4]): significantly greater growth suppression
- growth (cell counts) (H1299 cells [4]; compound alone, 7 days): significant growth suppression
- growth (cell counts) (A549 cells [5]): growth suppression
- pIC50 (BMPRII): 5.10
- pIC50 (TGFbetaR2): 6.71
- pIC50 (Alk2/ACVRR1): 7.37
